In patent US8883782B2, “Spiro-tetracyclic ring compounds as beta-secretase modulators and methods of use” (Amgen Inc., priority 2010, dated 2014):
pIC50: −log10 of the molar value. Where two headings read alike, the source gives them in different places.

Columns and labels:
[1] = target: Beta Secretase enzyme (BACE) (Homo sapiens, UniProt P56817); assay: In vitro enzymatic BACE FRET (fluorescence resonance energy transfer) assay; type: biochemical; conditions: average IC50, enzyme assay; read-out: BACE 1 FRET assay
Chain of Beta Secretase enzyme (BACE) (P56817 46-501, species assumed): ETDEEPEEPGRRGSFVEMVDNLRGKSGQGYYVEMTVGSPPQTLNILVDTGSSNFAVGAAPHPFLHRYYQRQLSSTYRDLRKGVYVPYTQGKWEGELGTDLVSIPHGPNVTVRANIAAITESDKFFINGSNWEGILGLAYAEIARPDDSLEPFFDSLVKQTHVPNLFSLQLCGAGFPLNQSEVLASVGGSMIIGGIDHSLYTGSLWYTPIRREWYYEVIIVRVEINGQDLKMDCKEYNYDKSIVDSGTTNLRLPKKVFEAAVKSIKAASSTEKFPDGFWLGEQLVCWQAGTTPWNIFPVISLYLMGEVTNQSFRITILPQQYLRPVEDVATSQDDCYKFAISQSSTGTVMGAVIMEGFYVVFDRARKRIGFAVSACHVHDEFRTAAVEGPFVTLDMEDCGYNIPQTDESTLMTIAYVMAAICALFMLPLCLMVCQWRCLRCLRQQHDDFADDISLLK
Summary of the method: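 Acetate buffer (0.05 M, pH 4.2), 10% DMSO final, 100 uM nonionic detergent genapol. Substrate addition (50 nM FRET peptide) initiates; one-hour incubation; Tris raises pH to neutrality before fluorescence measurement.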

[2] = system: Aβ40 in conditioned medium of cells stably expressing Amyloid Precursor Protein (APP); assay: In vitro BACE cell-based assay (Aβ40 in conditioned medium, sandwich ELISA); conditions: Homo sapiens, read-out: HEK cell assay
Summary of the method: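 The sandwich ELISA pairs pAb40 capture (3 h, 4 °C) with 6E10 detection (2 h, 4 °C) and a streptavidin-europium TRF read-out. Supernatants come from APP-expressing cells grown in 10% FBS DMEM.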

[3] = HEK293, average IC50, HEK cells

Compound	pIC50 [1]	pIC50 [2, 3]	pIC50 ([2]; HEK293, average IC50)
CC(C)(F)C#Cc1cnc2c(c1)[C@]1(COC(N)=N1)c1cc(-c3cncnc3)c(F)cc1O2 [Example 717, (S)-8-fluoro-3-(3-fluoro-3-methylbut-1-ynyl)-7-(pyrimidin-5-yl)-5′H-spiro[chromeno[2,3-b]pyridine-5,4′-oxazol]-2′-amine]	8.42	6.67	
COCC1SC(N)=NC12c1cc(-c3cccnc3F)ccc1Oc1c(F)cc(OC)cc12 [Example 720, (4R)-4′-fluoro-7′-(2-fluoro-3-pyridinyl)-2′-methoxy-5-(methoxymethyl)spiro[1,3-thiazole-4,9′-xanthen]-2-amine, (4S)-4′-fluoro-7′-(2-fluoro-3-pyridinyl)-2′-methoxy-5-(methoxymethyl)spiro[1,3-thiazole-4,9′-xanthen]-2-amine]	7.17		5.86
COCC1SC(N)=N[C@]12c1cc(-c3cccnc3F)ccc1Oc1cnc(-c3ccnc(F)c3)cc12 (stereo partly drawn) [Example 722, (5S)-7-(2-fluoro-3-pyridinyl)-3-(2-fluoro-4-pyridinyl)-5′-(methoxymethyl)spiro[chromeno[2,3-c]pyridine-5,4′-[1,3]thiazol]-2′-amine]	6.47	5.23	
NC1=N[C@@]2(CO1)c1cc(Oc3cccc(Cl)n3)ccc1Oc1c(F)cc(C3=CCOCC3)cc12 [Example 725, (4S)-7′-((6-chloro-2-pyridinyl)oxy)-2′-(3,6-dihydro-2H-pyran-4-yl)-4′-fluorospiro[1,3-oxazole-4,9′-xanthen]-2-amine]	7.64		5.72
NC1=N[C@@]2(CS1)c1cc(-c3cccnc3F)ccc1Oc1ncc(-c3ncccn3)cc12 [Example 728, (5S)-7-(2-fluoro-3-pyridinyl)-3-(2-pyrimidinyl)spiro[chromeno[2,3-b]pyridine-5,4′-[1,3]thiazol]-2′-amine]	8.46		7.10
NC1=N[C@@]2(CS1)c1cc(-c3cccnc3F)ccc1Oc1ncc(C3CCOCC3)cc12 [Example 729, (5S)-7-(2-fluoro-3-pyridinyl)-3-(tetrahydro-2H-pyran-4-yl)spiro[chromeno[2,3-b]pyridine-5,4′-[1,3]thiazol]-2′-amine]	8.17		7.37
CC#Cc1cncc(-c2ccc3c(c2)[C@@]2(CSC(N)=N2)c2cc(-c4cncc(C#CC)c4)cnc2O3)c1 [Example 730, (5S)-3,7-bis(5-(1-propyn-1-yl)-3-pyridinyl)spiro[chromeno[2,3-b]pyridine-5,4′-[1,3]thiazol]-2′-amine]	8.74		6.77
CC#Cc1cncc(-c2ccc3c(c2)[C@@]2(COC(N)=N2)c2cc(-c4ccncc4)nc(F)c2O3)c1 [Example 739, (5S)-1-fluoro-7-(5-(1-propyn-1-yl)-3-pyridinyl)-3-(4-pyridinyl)spiro[chromeno[2,3-c]pyridine-5,4′-[1,3]oxazol]-2′-amine]	9.30		8.30
CC#Cc1cncc(-c2ccc3c(c2)[C@@]2(COC(N)=N2)c2cc(-c4ccnc(C)c4)nc(F)c2O3)c1 [Example 740, (5S)-1-fluoro-3-(2-methyl-4-pyridinyl)-7-(5-(1-propyn-1-yl)-3-pyridinyl)spiro[chromeno[2,3-c]pyridine-5,4′-[1,3]oxazol]-2′-amine]	9.10		8.10
CC#Cc1cncc(-c2ccc3c(c2)[C@@]2(COC(N)=N2)c2cc(-c4ccc(C)nc4)nc(F)c2O3)c1 [Example 741, (5S)-1-fluoro-3-(6-methyl-3-pyridinyl)-7-(5-(1-propyn-1-yl)-3-pyridinyl)spiro[chromeno[2,3-c]pyridine-5,4′-[1,3]oxazol]-2′-amine]	9.40		8.40

The next lines start with the values.

pIC50 [1]	pIC50 [2, 3]	pIC50 ([2]; HEK293, average IC50)	Compound
7.03		6.02	CC#Cc1cncc(-c2ccc3c(c2)[C@@]2(COC(N)=N2)c2cc(OC)cc(F)c2O3)n1 [Example 723, (4S)-4′-fluoro-2′-methoxy-7′-(6-(1-propyn-1-yl)-2-pyrazinyl)spiro[1,3-oxazole-4,9′-xanthen]-2-amine]
8.39		6.89	CC1(C#Cc2cnc3c(c2)[C@]2(CSC(N)=N2)c2cc(-c4cnccc4F)ccc2O3)COC1 [Example 727, (5S)-7-(4-fluoro-3-pyridinyl)-3-((3-methyl-3-oxetanyl)ethynyl)spiro[chromeno[2,3-b]pyridine-5,4′-[1,3]thiazol]-2′-amine]
8.70		8.52	NC1=N[C@@]2(CO1)c1cc(-c3cccnc3F)ccc1Oc1ncc(-c3cccnc3F)cc12 [Example 732, (5S)-3,7-bis(2-fluoro-3-pyridinyl)spiro[chromeno[2,3-b]pyridine-5,4′-[1,3]oxazol]-2′-amine]
8.96		7.74	CC1(C#Cc2cc3c(c(F)n2)Oc2ccc(-c4cccnc4F)cc2C32COC(N)=N2)COC1 (stereo not drawn) [Example 733, 1-fluoro-7-(2-fluoro-3-pyridinyl)-3-((3-methyl-3-oxetanyl)ethynyl)spiro[chromeno[2,3-c]pyridine-5,4′-[1,3]oxazol]-2′-amine]
8.11		5.65	NC1=N[C@@]2(CO1)c1cc(-c3cccnc3F)ccc1Oc1c2cc(Br)nc1F [Example 734, (5S)-3-bromo-1-fluoro-7-(2-fluoro-3-pyridinyl)spiro[chromeno[2,3-c]pyridine-5,4′-[1,3]oxazol]-2′-amine]
9.05		6.88	NC1=NC2(CO1)c1cc(-c3cccnc3F)ccc1Oc1c2cc(C#Cc2cccnc2)nc1F (stereo not drawn) [Example 735, 1-fluoro-7-(2-fluoro-3-pyridinyl)-3-(3-pyridinylethynyl)spiro[chromeno[2,3-c]pyridine-5,4′-[1,3]oxazol]-2′-amine]
5.68		≤ 5.00	NC1=N[C@]2(CO1)c1cc(-c3cccnc3F)ccc1Oc1c2cc(Br)nc1F [Example 736, (5R)-3-bromo-1-fluoro-7-(2-fluoro-3-pyridinyl)spiro[chromeno[2,3-c]pyridine-5,4′-[1,3]oxazol]-2′-amine]
6.94		5.36	CC1(C#Cc2cc3c(c(F)n2)Oc2ccc(-c4cccnc4F)cc2[C@]32COC(N)=N2)COC1 [Example 737, (5R)-1-fluoro-7-(2-fluoro-3-pyridinyl)-3-((3-methyl-3-oxetanyl)ethynyl)spiro[chromeno[2,3-c]pyridine-5,4′-[1,3]oxazol]-2′-amine]
9.22		8.00	CC1(C#Cc2cc3c(c(F)n2)Oc2ccc(-c4cccnc4F)cc2[C@@]32COC(N)=N2)COC1 [Example 738, (5S)-1-fluoro-7-(2-fluoro-3-pyridinyl)-3-((3-methyl-3-oxetanyl)ethynyl)spiro[chromeno[2,3-c]pyridine-5,4′-[1,3]oxazol]-2′-amine]
9.40		8.10	N#Cc1cccc(-c2ccc3c(c2)[C@@]2(COC(N)=N2)c2cc(C4=CCCOC4)nc(F)c2O3)c1 [Example 742, 3-((5S)-2′-amino-3-(5,6-dihydro-2H-pyran-3-yl)-1-fluorospiro[chromeno[2,3-c]pyridine-5,4′-[1,3]oxazol]-7-yl)benzonitrile]
9.40		8.22	N#Cc1cccc(-c2ccc3c(c2)[C@@]2(COC(N)=N2)c2cc(C4=CCOCC4)nc(F)c2O3)c1 [Example 743, 3-((5S)-2′-amino-3-(3,6-dihydro-2H-pyran-4-yl)-1-fluorospiro[chromeno[2,3-c]pyridine-5,4′-[1,3]oxazol]-7-yl)benzonitrile]
